Measured values reported in patent EP4722219A1 (Gan & Lee Pharmaceuticals Co., Ltd., priority 2023, dated 2024).

Columns and labels:
SMARCA2 [1] = biological target: T1, SMARCA2 (Homo sapiens, UniProt P51531); assay: SMARCA2 degradation in SW1573 cells (Western blot); assay type: cell-based; set-up: endogenous in cells; host or cells: SW1573; conditions: 24 hours
Experimental: (§1) Test Example 10 Degradation rate (%) of SMARCA2/4 by the PROTAC compounds of the present invention in HeLa cells and SW1573 cells
SW1573 cells were seeded at 2x10^5Cells/well in a 6-well plate. 2 mL of EMEM medium supplemented with 10% FBS was added to each well and was incubated overnight to allow cell attachment. The next day, 1 µL of 160 µM and 1 µL of 2 µM compound were added to the corresponding wells for treatment, resulting in final compound concentrations of 80 nM and 1 nM, respectively, and a final DMSO concentration of 0.05%. The cells were returned to the incubator and incubated for another 24 hours.
(§2) After 24 hours, cells were harvested, the medium was aspirated, and the cells were rinsed once with 1 mL/well PBS. The PBS was aspirated, and 40 µL/well of RIPA lysis buffer containing protease inhibitors was added. After lysis and centrifugation, total protein extracts were obtained, and protein concentration in the extracts was determined by BCA assay. Protein electrophoresis was performed by SDS-PAGE, followed by constant voltage electrophoresis at 100 V for 60 minutes and the protein was then transferred to a PVDF membrane. The PVDF membrane was blocked in 5% skim milk powder for 1 hour at room temperature. Primary antibodies (SMARCA2: CST#11966S, SMARCA4: CST#49360S, GAPDH: CST#5174S) were added and incubated overnight at 4°C. After washing the membrane, secondary antibodies were added and incubated at room temperature for 1 hour (protected from the light). After washing, the membrane was exposed using an Odyssey luminometer. Grayscale analysis of bands was performed using Image Studio software.
(§3) The degradation rate (%) of SMARCA2/4 by the PROTAC compounds of the present invention in HeLa cells and SW1573 cells is shown in Table 10. Table 10 Degradation rate of SMARCA2/4 by PROTAC compounds of the present invention in HeLa cells and SW1573 cells (%)

SMARCA2 [2] = biological target: T1, SMARCA2; assay: SMARCA2 degradation in HeLa cells (Western blot); assay type: cell-based; set-up: endogenous in cells; conditions: 4 hours
Experimental: as §1
HeLa cells were seeded at 1.2 x 10^5 cells/well in a 6-well plate. 2 mL of EMEM medium supplemented with 10% FBS was added to each well and the culture dish was incubated overnight to allow the cells to adhere. The next day, 1 µL of 160 µM and 1 µL of 2 µM compound were added to the corresponding wells, resulting in final compound concentrations of 80 nM and 1 nM, respectively, and a final DMSO concentration of 0.05%. The cells were returned to the incubator and incubated for another 4 hours.
as §2, with “After 4 hours, cells” for “After 24 hours, cells”, “harvested, the culture medium was” for “harvested, the medium was”
as §3

CRBN protein = CRBN protein (Homo sapiens, UniProt Q96SW2); assay: Binding activity to E3 ubiquitin ligase CRBN (HTRF competitive binding kit, Thalidomide-Red); conditions: competition with XL665-labeled thalidomide for GST-tagged CRBN protein, HTRF, 3 hours at room temperature; read-out: IC50
Source text: Binding activity of the E3 ligase inhibitor disclosed in the present invention to E3 ubiquitin ligase CRBN
CRBN binding activity test kit (CEREBLON BINDING KITS (PE, 64BD CRBN PEG).
The detection is based on homogeneous time-resolved fluorescence (HTRF) technology.
This kit uses a europium-labeled GST antibody (GST Eu Cryptate Antibody) as the donor and XL665-labeled thalidomide (Thalidomide-Red reagent) as the receptor. The donor binds to the GST-tagged CRBN protein.
The donor and receptor were each diluted 50-fold using the buffer provided in the kit (PROTAC binding buffer 1). The CRBN protein was diluted 45-fold. An 8mM solution of the compound disclosed herein was diluted 10-fold using the diluent provided in the kit (1X diluent), followed by 7 successive 5-fold serial dilutions of the resulting solution.
The ratio of the acceptor and donor emission signals was calculated for each individual well.
IC50 values was calculated based on compound concentration, Ratio, and coefficient of variation using GraphPad Prism.

| IC50 (CRBN protein) [µM] | Compound | Degradation rate of SMARCA2 in SW1573 cells (%) (SMARCA2 [1]; 1 nM) | Degradation rate of SMARCA2 in SW1573 cells (%) (SMARCA2 [1]; 80 nM) | Degradation rate of SMARCA2 in HeLa cells (%) (SMARCA2 [2]; 1 nM) | Degradation rate of SMARCA2 in HeLa cells (%) (SMARCA2 [2]; 80 nM) |
| --- | --- | --- | --- | --- | --- |
|  | Cn1c(=O)n(C2CCC(=O)NC2=O)c2cc3c(cc21)C1(CCN(C2CC4(CCC(C#Cc5cc(-c6ccccc6O)nnc5N)CC4)C2)CC1)CO3 (stereo not shown) [SM-P-4, 3-(1'-(7-((3-amino-6-(2-hydroxyphenyl)pyridazin-4-yl)ethynyl)spiro[3.5]nonan-2-yl)-1-methyl-2-oxo-1,2-dihydro-3H,6H-spiro[benzofuro[5,6-d]imidazole-7,4'-piperidin]-3-yl)piperidine-2,6-dione] | 100 | 100 | 100 | 99 |
|  | Nc1nnc(-c2ccccc2O)cc1C#CC1CCC2(CC1)CC(N1CCC3(CC1)COc1cc(C(=O)N[C@H]4CCC(=O)NC4=O)c(F)cc13)C2 (stereo partly shown) [SM-P-8] | 9 | 61 | 28 | 64 |
|  | COc1cc2c(cc1C(=O)N[C@H]1CCC(=O)NC1=O)C1(CCN(C3CC4(CCC(C#Cc5cc(-c6ccccc6O)nnc5N)CC4)C3)CC1)CO2 (stereo partly drawn) [SM-P-14, (S)-1'-(7-((3-amino-6-(2-hydroxyphenyl)pyridazin-4-yl)ethynyl)spiro[3.5]nonan-2-yl)-N-(2,6-dioxopiperidin-3-yl)-6-methoxy-2H-spiro[benzofuran-3,4'-piperidin]-5-carboxamide] | 22 | 14 | -7 | -3 |
|  | Nc1nnc(-c2ccccc2O)cc1C#CC1CCC2(CC1)CC(N1CCC3(CC1)COc1cc(F)c(C(=O)N[C@H]4CCC(=O)NC4=O)cc13)C2 (stereo partly shown) [SM-P-21] | -12 | 14 | 15 | 4 |
|  | Cn1c(=O)n(C2CCC(=O)NC2=O)c2ccc3c(c21)OCC31CCN(C2CC3(CCC(C#Cc4cc(-c5ccccc5O)nnc4N)CC3)C2)CC1 (stereo not shown) [SM-P-26, 3-(1'-(7-((3-amino-6-(2-hydroxyphenyl)pyridazin-4-yl)ethynyl)spiro[3.5]nonan-2-yl)-1-methyl-2-oxo-1,2-dihydro-3H,7H-spiro[benzofuro[6,7-d]imidazole-6,4'-piperidin]-3-yl)piperidine-2,6-dione] | 100 | 99 | 100 | 99 |
|  | Cn1c(=O)n(C2CCC(=O)NC2=O)c2ccc3c(c21)OCC31CCN(C[C@H]2CC[C@H](Cn3cc(-c4cc(-c5ccccc5O)nnc4N)cn3)CC2)CC1 (stereo partly shown) [SM-P-29, 3-(1'-(((1r,4r)-4-((4-(3-amino-6-(2-hydroxyphenyl)pyridazin-4-yl)-1H-pyrazol-1-yl)methyl)cyclohexyl)methyl)-1-methyl-2-oxo-1,2-dihydro-3H,7H-spiro[benzofuro[6,7-d]imidazole-6,4'-piperidin]-3-yl)piperidine-2,6-dione] | 100 | 99 | 100 | 90 |
|  | Cn1c(=O)n(C2CCC(=O)NC2=O)c2cc3c(cc21)C1(CCN(C[C@H]2CC[C@H](Cn4cc(-c5cc(-c6ccccc6O)nnc5N)cn4)CC2)CC1)CO3 (stereo partly shown) [SM-P-30, 3-(1'-(((1r,4r)-4-((4-(3-amino-6-(2-hydroxyphenyl)pyridazin-4-yl)-1H-pyrazol-1-yl)methyl)cyclohexyl)methyl)-1-methyl-2-oxo-1,2-dihydro-3H,6H-spiro[benzofuro[5,6-d]imidazole-7,4'-piperidin]-3-yl)piperidine-2,6-dione] | 99 | 97 | 99 | 90 |
|  | Cn1c(=O)n(C2CCC(=O)NC2=O)c2ccc3c(c21)OCC31CCN(C[C@H]2CC[C@H](n3cc(-c4cc(-c5ccccc5O)nnc4N)cn3)CC2)CC1 (stereo partly shown) [SM-P-35] | 100 | 100 | 100 | 99 |
|  | Cn1c(=O)n(C2CCC(=O)NC2=O)c2cc3c(cc21)C1(CCN(C[C@H]2CC[C@H](n4cc(-c5cc(-c6ccccc6O)nnc5N)cn4)CC2)CC1)CO3 (stereo partly shown) [SM-P-36] | 100 | 98 | 99 | 97 |
|  | Cn1c(=O)n(C2CCC(=O)NC2=O)c2ccc3c(c21)OCC31CCN(C2CN(c3cc(-c4ccccc4O)nnc3N)C2)CC1 (stereo not shown) [SM-P-37, 3-(1'-(1-(3-amino-6-(2-hydroxyphenyl)pyridazin-4-yl)azetidin-3-yl)-1-methyl-2-oxo-1,2-dihydro-3H,7H-spiro[benzofuro[6,7-d]imidazole-6,4'-piperidin]-3-yl)piperidine-2,6-dione] |  |  | 24 | 33 |
|  | Cn1c(=O)n(C2CCC(=O)NC2=O)c2cc3c(cc21)C1(CCN(C2CN(c4cc(-c5ccccc5O)nnc4N)C2)CC1)CO3 (stereo not shown) [SM-P-38, 3-(1'-(1-(3-amino-6-(2-hydroxyphenyl)pyridazin-4-yl)azetidin-3-yl)-1-methyl-2-oxo-1,2-dihydro-3H,6H-spiro[benzofuro[5,6-d]imidazole-7,4'-piperidin]-3-yl)piperidine-2,6-dione] | 24 | 29 | -6 | 10 |
| 37.3 | (R) -N-((S)-2,6-Dioxyhesperidin-3-yl)-9-methoxy-6-methyl-2,3,4,4a,5,6-hexahydro-1H-pyrazino[1,2-a]quinoline-8-carboxamide [Compound B12] |  |  |  |  |
